# Calls of active or inactive are those of the source.
# Assays:
# [1] = Luminescence Cell-Based Dose Response HTS to Identify Activators of Luciferase Translation or Activity in H4 […] Cells. [Related pubchem assays: 1829 (Project Summary), 1814 (Primary HTS)]; format: functional
# [2] = Luminescence Cell-Based Dose Response to Identify Activators of Luciferase Translation or Activity in H4-C Neuroglioblastoma Cells. [Related pubchem assays: 1829 (Project Summary), 1814 (Primary HTS)]; format: functional
# [3] = Luminescence Cell-Based Dose Confirmation to Identify Activators of 5'UTR Stem-Loop Driven Alpha-Synuclein mRNA Translation in H4 Neuroglioblastoma Cells. [Related pubchem assays: 1829 (Project Summary), 1814 (Primary HTS)]; format: functional
# H4 = assay: Luminescence Cell-Based Dose Response HTS to Identify Activators of 5'UTR Stem-Loop Driven Prion Protein mRNA Translation in H4 Neuroglioblastoma Cells. [Related pubchem assays: 1829 (Project Summary), 1814 (Primary HTS)]; format: functional; details: Homo sapiens
# [4] = Luminescence Cell-Based Dose Confirmation HTS to Identify Activators of 5'UTR Stem-Loop Driven Alpha-Synuclein mRNA Translation in H4 Neuroglioblastoma Cells. [Related pubchem assays: 1829 (Project Summary), 1814 (Primary HTS)]; format: functional
# [5] = Luminescence Cell-Based Dose Response to Identify Activators of 5'UTR Stem-Loop Driven Prion Protein mRNA Translation in H4-C Neuroglioblastoma Cells. [Related pubchem assays: 1829 (Project Summary), 1814 (Primary HTS)]; format: functional
# Protein Tat = molecular target: T1, Protein Tat (Human immunodeficiency virus type 1 group M subtype B (isolate HXB2)(HIV-1), UniProt P04608); format: functional;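 note: tat binding to TAR RNA read out by fluorescence polarization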
# T1 sequence (P04608 whole entry): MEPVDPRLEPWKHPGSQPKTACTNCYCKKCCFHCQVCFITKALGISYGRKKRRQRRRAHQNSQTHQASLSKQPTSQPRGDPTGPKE
# Cytochrome P450 3A4 = Cytochrome P450 3A4 (Homo sapiens, UniProt P08684); details: Potency;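 note: confirmatory qHTS run detecting inhibitors and substrates of CYP3A4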
# Sequence of Cytochrome P450 3A4 (P08684 whole entry): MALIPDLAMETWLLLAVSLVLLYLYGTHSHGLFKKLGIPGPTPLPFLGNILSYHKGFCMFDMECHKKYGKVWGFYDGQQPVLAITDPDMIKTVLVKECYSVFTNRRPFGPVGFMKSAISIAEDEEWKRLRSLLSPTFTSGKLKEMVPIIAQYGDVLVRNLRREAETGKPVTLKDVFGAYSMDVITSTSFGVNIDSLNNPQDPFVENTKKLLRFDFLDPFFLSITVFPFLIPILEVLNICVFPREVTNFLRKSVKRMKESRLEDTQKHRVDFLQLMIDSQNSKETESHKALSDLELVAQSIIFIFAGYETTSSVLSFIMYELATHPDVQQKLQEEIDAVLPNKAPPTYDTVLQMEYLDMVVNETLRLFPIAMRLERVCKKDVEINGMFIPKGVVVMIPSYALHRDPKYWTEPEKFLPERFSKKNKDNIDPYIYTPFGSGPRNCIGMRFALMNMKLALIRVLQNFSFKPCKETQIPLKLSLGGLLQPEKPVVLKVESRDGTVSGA
# [6] = molecular target: Peroxisome proliferator-activated receptor gamma/Nuclear receptor coactivator 3 (Homo sapiens, UniProt P37231); format: functional;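 note: agonist potency for raising coactivator recruitment to the receptor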
# [7] = molecular target: Peroxisome proliferator-activated receptor gamma/Nuclear receptor coactivator 2 (Homo sapiens, UniProt P37231); format: functional;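 note: agonist potency for raising coactivator recruitment to the receptor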
# Sequence of Peroxisome proliferator-activated receptor gamma/Nuclear receptor coactivator 2 (P37231 whole entry): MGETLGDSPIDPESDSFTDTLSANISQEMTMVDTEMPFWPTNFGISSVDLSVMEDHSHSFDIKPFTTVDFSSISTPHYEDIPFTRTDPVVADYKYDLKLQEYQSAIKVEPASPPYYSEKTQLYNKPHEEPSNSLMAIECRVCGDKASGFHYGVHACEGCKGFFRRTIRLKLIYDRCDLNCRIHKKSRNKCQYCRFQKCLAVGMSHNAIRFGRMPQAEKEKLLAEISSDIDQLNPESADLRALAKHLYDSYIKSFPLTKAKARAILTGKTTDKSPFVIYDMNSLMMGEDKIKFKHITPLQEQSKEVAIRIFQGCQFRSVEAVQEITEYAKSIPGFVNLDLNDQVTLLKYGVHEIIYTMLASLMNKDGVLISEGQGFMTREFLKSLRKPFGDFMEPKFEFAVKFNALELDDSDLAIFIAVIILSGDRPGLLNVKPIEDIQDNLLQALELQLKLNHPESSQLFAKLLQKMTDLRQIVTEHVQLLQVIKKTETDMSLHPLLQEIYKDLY
# Sequence of Peroxisome proliferator-activated receptor gamma/Nuclear receptor coactivator 2 (Q15596 whole entry, further chain): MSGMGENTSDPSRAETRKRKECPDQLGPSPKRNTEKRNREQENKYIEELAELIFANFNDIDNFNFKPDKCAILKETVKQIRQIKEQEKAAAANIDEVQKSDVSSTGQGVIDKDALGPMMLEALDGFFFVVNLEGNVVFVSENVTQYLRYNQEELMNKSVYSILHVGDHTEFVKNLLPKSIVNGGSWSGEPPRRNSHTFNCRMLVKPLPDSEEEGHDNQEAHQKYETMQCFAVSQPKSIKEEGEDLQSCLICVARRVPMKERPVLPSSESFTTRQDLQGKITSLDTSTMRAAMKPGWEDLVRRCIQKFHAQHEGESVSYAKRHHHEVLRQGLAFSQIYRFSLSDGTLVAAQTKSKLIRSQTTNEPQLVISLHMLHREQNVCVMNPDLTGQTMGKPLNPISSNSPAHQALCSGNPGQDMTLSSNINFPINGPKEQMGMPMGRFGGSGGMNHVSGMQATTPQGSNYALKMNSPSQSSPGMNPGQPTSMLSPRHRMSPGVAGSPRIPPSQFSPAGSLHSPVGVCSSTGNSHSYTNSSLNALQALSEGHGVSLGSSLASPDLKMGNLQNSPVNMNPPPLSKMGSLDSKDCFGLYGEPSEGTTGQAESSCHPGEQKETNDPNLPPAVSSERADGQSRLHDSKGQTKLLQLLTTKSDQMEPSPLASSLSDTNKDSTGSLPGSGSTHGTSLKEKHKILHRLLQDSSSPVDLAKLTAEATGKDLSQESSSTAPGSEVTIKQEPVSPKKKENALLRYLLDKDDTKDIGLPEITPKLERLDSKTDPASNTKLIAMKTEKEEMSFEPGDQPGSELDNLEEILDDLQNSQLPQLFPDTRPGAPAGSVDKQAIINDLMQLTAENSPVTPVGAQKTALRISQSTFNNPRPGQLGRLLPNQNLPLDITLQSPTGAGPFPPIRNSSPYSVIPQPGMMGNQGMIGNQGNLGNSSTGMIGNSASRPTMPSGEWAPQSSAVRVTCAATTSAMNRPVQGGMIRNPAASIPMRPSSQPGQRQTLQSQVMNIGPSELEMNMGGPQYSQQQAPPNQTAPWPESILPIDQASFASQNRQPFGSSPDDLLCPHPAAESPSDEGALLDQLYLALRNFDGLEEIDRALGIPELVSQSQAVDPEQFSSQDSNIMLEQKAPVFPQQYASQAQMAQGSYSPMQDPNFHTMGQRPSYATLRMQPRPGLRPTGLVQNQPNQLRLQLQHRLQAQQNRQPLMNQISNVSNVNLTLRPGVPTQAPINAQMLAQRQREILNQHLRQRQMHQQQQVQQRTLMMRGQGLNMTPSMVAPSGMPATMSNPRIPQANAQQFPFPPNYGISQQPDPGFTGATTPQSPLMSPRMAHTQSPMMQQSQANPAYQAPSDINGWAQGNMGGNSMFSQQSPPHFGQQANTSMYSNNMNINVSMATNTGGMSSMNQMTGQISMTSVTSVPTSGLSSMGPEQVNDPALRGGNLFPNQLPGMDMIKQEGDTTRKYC
# [8] = molecular target: Peroxisome proliferator-activated receptor gamma/Nuclear receptor coactivator 1 (Homo sapiens, UniProt P37231); format: functional;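 note: agonist potency as compounds enhance coactivator SRC-1 recruitment to PPARgamma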
# Sequence of Peroxisome proliferator-activated receptor gamma/Nuclear receptor coactivator 1 (P37231 whole entry): as the sequence (P37231 whole entry) above
# Sequence of Peroxisome proliferator-activated receptor gamma/Nuclear receptor coactivator 1 (Q15788 whole entry, further chain): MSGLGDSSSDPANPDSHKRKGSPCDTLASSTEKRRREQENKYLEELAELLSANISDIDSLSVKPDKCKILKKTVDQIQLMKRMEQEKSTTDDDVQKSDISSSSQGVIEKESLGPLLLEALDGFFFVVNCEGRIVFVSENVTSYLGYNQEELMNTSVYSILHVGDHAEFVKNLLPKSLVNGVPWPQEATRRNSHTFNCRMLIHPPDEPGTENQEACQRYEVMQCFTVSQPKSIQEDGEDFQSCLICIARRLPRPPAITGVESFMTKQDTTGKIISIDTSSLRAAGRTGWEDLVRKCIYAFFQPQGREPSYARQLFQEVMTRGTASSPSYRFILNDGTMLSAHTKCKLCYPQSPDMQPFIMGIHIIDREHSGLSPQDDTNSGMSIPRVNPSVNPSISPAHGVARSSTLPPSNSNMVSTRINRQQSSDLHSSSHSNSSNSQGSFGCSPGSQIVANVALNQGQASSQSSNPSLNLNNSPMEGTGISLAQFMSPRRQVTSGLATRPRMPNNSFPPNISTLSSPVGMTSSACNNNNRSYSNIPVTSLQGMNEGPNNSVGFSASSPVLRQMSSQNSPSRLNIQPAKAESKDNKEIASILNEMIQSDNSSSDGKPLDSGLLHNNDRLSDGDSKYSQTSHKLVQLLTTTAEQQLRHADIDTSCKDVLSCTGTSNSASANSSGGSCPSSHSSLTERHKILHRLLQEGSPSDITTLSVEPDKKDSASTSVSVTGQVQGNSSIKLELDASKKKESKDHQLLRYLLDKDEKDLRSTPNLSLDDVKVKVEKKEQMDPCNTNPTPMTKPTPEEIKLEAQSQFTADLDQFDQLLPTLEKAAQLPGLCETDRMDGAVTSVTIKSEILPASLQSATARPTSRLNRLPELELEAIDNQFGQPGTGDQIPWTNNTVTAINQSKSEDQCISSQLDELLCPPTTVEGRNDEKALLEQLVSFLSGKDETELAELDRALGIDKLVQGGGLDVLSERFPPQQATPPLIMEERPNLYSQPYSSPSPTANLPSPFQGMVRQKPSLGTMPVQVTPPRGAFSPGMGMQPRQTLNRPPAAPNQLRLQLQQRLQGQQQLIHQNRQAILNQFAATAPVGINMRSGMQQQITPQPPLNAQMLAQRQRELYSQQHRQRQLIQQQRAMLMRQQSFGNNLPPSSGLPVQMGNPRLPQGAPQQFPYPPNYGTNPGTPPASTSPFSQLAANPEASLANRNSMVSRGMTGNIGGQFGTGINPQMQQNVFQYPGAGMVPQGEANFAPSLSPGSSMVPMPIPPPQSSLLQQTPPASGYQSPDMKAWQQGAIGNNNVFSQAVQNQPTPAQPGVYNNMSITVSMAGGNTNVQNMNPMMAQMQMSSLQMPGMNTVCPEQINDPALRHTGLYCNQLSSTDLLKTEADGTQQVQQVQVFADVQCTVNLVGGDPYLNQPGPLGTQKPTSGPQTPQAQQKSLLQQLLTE
# [9] = cytotoxicity toward DRD oncogenic fibroblasts, dose response, cell-based, non-viral oncogenic, luminescence (AID 1934); format: functional; details: Homo sapiens
# BJ [10] = assay: cells; format: functional, cell-based; details: Homo sapiens
# BJ [11] = assay: cytotoxicity toward BJ-TERT fibroblasts, dose response, cell-based, RAS-independent, luminescence (AID 1933); format: functional; details: Homo sapiens
# [12] = molecular target: Luciferin 4-monooxygenase (Photinus pyralis, UniProt P08659); assay: firefly luciferase enzyme inhibitors, dose response, biochemical, luminescence (AID 1891)
# Sequence of Luciferin 4-monooxygenase (P08659 whole entry): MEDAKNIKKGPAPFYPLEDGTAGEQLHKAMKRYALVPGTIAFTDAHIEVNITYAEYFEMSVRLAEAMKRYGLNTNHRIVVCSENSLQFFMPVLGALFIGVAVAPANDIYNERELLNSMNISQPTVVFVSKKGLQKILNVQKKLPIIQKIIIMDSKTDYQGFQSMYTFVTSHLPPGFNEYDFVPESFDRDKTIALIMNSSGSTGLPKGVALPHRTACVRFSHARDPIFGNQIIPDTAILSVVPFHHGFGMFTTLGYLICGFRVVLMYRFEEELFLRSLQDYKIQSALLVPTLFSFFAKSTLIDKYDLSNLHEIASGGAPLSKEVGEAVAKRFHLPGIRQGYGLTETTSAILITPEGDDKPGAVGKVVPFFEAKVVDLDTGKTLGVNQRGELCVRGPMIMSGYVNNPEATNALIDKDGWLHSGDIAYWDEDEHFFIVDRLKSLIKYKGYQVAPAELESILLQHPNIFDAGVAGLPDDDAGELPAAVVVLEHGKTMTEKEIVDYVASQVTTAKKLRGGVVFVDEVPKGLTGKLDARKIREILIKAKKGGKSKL
# BJ [13] = assay: cytotoxicity toward BJ-TERT-LT-ST fibroblasts, dose response, cell-based, RAS-independent, luminescence (AID 1935); format: functional; details: Homo sapiens;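 note: BJ fibroblasts immortalized with TERT plus LT and ST oncogenes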
# [14] = MC4R antagonists, dose response, counter-screen for LGR2 antagonist project, cell-based, plate reader, cherry pick (AID 743444); format: functional;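 note: transfected HEK 293 cells stimulated with alpha-MSH peptide; potency of inhibitors of the alpha-MSH evoked signal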
# [15] = A549 cell cytotoxicity, dose response, cytotoxicity control, plate reader, cherry-pick, antagonist series (AID 743412); format: functional, cell-based
# [16] = HEK293 cell cytotoxicity, dose response, cytotoxicity control, plate reader, cherry-picked samples (AID 743446); format: functional, cell-based
# [17] = HepG2 cell cytotoxicity, dose response, cytotoxicity control, plate reader, cherry-pick, antagonist series (AID 743416); format: functional, cell-based
# [18] = Luminescence Cell-Based Dose Confirmation HTS to Identify Inhibitors of Platelet Dense Granule Release. [Related pubchem assays: 1663 (Primary HTS), 1678 (Summary of Project)]; format: functional
# [19] = LGR2 antagonists, dose response, cell-based, HEK293, CRE-luciferase reporter, cherry pick, set 2 (AID 743343); format: functional;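 note: transfected cells were stimulated with diluted bursicon conditioned medium after compound addition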
# Protein skinhead-1 = molecular target: T2, Protein skinhead-1 (Caenorhabditis elegans, UniProt P34707); format: functional
# T2 sequence (P34707 whole entry): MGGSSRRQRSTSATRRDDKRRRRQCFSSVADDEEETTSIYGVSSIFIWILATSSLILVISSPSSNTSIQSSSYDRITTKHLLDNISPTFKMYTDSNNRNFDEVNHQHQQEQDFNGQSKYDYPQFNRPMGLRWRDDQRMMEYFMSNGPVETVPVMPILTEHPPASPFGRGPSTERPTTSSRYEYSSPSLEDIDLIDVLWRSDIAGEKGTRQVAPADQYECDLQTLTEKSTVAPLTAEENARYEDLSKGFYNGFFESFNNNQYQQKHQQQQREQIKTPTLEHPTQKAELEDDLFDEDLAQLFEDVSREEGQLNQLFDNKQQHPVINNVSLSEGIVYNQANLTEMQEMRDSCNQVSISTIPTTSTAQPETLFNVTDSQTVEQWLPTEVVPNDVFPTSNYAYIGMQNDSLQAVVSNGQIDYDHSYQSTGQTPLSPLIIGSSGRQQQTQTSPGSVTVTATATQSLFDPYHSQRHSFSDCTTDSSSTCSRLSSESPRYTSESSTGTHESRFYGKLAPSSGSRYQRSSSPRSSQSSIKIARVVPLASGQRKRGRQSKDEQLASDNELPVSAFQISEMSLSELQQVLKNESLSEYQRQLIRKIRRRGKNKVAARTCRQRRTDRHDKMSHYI
# Leucine aminopeptidase = molecular target: T3, Leucine aminopeptidase (Plasmodium falciparum 3D7, UniProt Q8IL11); assay: P. falciparum M17LAP inhibitors, primary screen, biochemical, fluorogenic H-Leu-NHMec substrate, 1536-well (AID 1619); format: functional
# T3 sequence (Q8IL11 whole entry): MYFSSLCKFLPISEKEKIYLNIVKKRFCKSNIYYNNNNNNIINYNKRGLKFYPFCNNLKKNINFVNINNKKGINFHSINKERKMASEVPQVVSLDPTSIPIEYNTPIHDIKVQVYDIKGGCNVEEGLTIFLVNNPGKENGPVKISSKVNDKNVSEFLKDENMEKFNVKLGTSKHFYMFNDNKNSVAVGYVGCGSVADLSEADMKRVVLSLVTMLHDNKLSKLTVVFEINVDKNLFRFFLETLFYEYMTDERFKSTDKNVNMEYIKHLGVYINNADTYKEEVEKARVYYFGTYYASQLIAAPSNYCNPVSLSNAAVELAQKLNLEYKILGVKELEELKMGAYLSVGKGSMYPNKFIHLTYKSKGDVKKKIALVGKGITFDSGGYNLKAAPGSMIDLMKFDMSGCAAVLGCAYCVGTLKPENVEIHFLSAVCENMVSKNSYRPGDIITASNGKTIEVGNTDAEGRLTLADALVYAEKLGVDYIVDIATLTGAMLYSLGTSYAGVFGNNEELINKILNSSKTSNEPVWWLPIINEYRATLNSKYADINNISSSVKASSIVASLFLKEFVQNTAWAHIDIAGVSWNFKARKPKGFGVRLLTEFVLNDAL
compound,measurement,setting,value
O=C(CSc1nnnn1C1CCCC1)N1CCCCC1,EC50,[1],< 0.1 µM (active)
same,EC50,[2],0.57 µM (active)
same,EC50,[3],0.524 µM (active)
same,EC50,H4,> 120 µM (not active)
same,EC50,[4],0.118 µM (active)
same,EC50,[5],0.537 µM (active)
COc1ccc2cc(C3C(C#N)=C(N)OC(C)=C3C(C)=O)c(Cl)nc2c1 (configuration not stated),IC50,Protein Tat,> 100 µM (active)
COc1ccc(-c2nc3c(c4c2CC(C)OC4)CN(CCC(C)C)CC3)cc1 (configuration not stated),AC50,Cytochrome P450 3A4,3.16 µM (inconclusive)
O=C(NC1CCCCCCC1)NC1CCCCC1,EC50,[1],5.81 µM (active)
same,EC50,[2],1.12 µM (active)
same,EC50,[3],> 12 µM (not active)
same,EC50,H4,> 120 µM (not active)
same,EC50,[5],1.84 µM (active)
CC1(C)Cc2c(C#N)c(SCC(=O)c3ccccc3)nc(N3CCOCC3)c2CO1,EC50,[6],> 79.4 µM (not active)
same,EC50,[7],79.4 µM (not active)
same,EC50,[8],> 79.4 µM (not active)
CC(=O)c1cnc2cc(-c3ccc(C)cc3)nn2c1C,EC50,[1],< 0.1 µM (active)
same,EC50,[2],0.319 µM (active)
same,EC50,[3],0.297 µM (active)
same,EC50,[5],0.223 µM (active)
CCCSc1ccc2nc(-c3ccccc3)cn2c1,EC50,[9],20.9 µM (active)
same,EC50,BJ [10],19.6 µM (active)
same,EC50,BJ [11],22.8 µM (active)
same,EC50,[12],0.709 µM (active)
same,EC50,BJ [13],> 150 µM (not active)
same,AC50,[14],1.2 µM (active)
same,AC50,[15],39.3 µM (active)
same,AC50,[16],39.5 µM (active)
same,AC50,[17],20.7 µM (active)
same,EC50,[18],2.14 µM (active)
same,AC50,[19],0.951 µM (active)
same,IC50,Protein skinhead-1,> 100 µM (inactive)
O=C(CN1C(=O)c2ccccc2S1(=O)=O)NCCSc1ccccc1,IC50,Leucine aminopeptidase,5.54 µM (active)
FC(F)(F)c1ccc(CN2C[C@@H]3C(c4ccc(C(F)(F)F)cc4)C4(c5ccccc5)CC3(C4)[C@H]2c2ccccc2)cc1 (some centres not stated),AC50,Cytochrome P450 3A4,0.316 µM (inconclusive)
CC(=O)c1cccc(NC(=O)c2cc3ccccn3n2)c1,EC50,[6],> 79.4 µM (not active)
same,EC50,[7],> 79.4 µM (not active)
same,EC50,[8],> 79.4 µM (not active)

# — ChEMBL document CHEMBL1201862, “PubChem BioAssay data set” (2004)
